According to patent publication US20230348442A1, “GALECTIN-3 INHIBITING 2-HYDROXYCYCLOALKANE-1-CARBAMOYL DERIVATIVES” (Idorsia Pharmaceuticals Ltd, priority 2020, published 2023):

molecular target: human Gal-3 (hGal-3) (Homo sapiens (Human), UniProt P17931); assay: competitive binding assay: binding of biotinylated hGal-3 to microplate-adsorbed asialofetuin (ASF), spectrophotometric; settings: Activity on hGal-3; mean values of several measurements
In short: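 Spectrophotometric readout (streptavidin-peroxidase, ABTS) of biotinylated galectin retained on ASF-coated wells. Biotinylated hGal-1 or hGal-3, 300-1000 ng/mL, co-incubated with test compound 3 h at 4° C, then washed. Mean IC50 from repeat runs.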

human Gal-3 (hGal-3), sequence (P17931 whole entry): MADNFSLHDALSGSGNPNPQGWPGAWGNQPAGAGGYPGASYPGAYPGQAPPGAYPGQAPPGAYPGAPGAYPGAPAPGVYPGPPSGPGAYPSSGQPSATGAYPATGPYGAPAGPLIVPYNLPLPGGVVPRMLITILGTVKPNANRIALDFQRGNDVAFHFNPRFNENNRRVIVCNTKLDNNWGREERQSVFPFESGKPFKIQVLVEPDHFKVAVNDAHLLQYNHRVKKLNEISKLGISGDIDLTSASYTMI

Row | IC50 [nM] | Compound
1 | 131 | CO[C@@H]1[C@@H](n2cc(-c3ccc(Cl)c(Cl)c3)nn2)[C@@H](O)[C@@H](CO)O[C@H]1C(=O)N(c1cc(Cl)cc(C#N)c1)[C@H]1CC[C@@H]1O [Example 2.8.4, (2R,3R,4S,5R,6R)-N-(3-chloro-5-cyanophenyl)-4-(4-(3,4-dichlorophenyl)-1H-1,2,3-triazol-1-yl)-5-hydroxy-N-((1S,2S)-2-hydroxycyclobutyl)-6-(hydroxymethyl)-3-methoxytetrahydro-2H-pyran-2-carboxamide]
2 | 34.7 | CO[C@@H]1[C@@H](n2cc(-c3cc(F)c(F)c(F)c3)nn2)[C@@H](O)[C@@H](CO)O[C@H]1C(=O)N(c1cc(C)cc(Br)c1)[C@H]1CCC[C@@H]1O [Example 1.1.12, (2R,3R,4S,5R,6R)-N-(3-bromo-5-methylphenyl)-5-hydroxy-N-((1S,2S)-2-hydroxycyclopentyl)-6-(hydroxymethyl)-3-methoxy-4-(4-(3,4,5-trifluorophenyl)-1H-1,2,3-triazol-1-yl)tetrahydro-2H-pyran-2-carboxamide]
3 | 193 | CO[C@@H]1[C@@H](n2cc(-c3cc(F)c(Cl)c(F)c3)nn2)[C@@H](O)[C@@H](CO)O[C@H]1C(=O)N(c1cc(Cl)cc(C#N)c1)[C@@H]1CC[C@H]1O [Example 2.5.4R, (2R,3R,4S,5R,6R)-4-(4-(4-chloro-3,5-difluorophenyl)-1H-1,2,3-triazol-1-yl)-N-(3-chloro-5-cyanophenyl)-5-hydroxy-N-((1R,2R)-2-hydroxycyclobutyl)-6-(hydroxymethyl)-3-methoxytetrahydro-2H-pyran-2-carboxamide]
4 | 174 | CO[C@@H]1[C@@H](n2cc(-c3cc(F)c(Br)c(F)c3)nn2)[C@@H](O)[C@@H](CO)O[C@H]1C(=O)N(c1cc(Cl)cc(C#N)c1)[C@@H]1CC[C@H]1O [Example 2.6.4R, (2R,3R,4S,5R,6R)-4-(4-(4-bromo-3,5-difluorophenyl)-1H-1,2,3-triazol-1-yl)-N-(3-chloro-5-cyanophenyl)-5-hydroxy-N-((1R,2R)-2-hydroxycyclobutyl)-6-(hydroxymethyl)-3-methoxytetrahydro-2H-pyran-2-carboxamide]
5 | 508 | CO[C@@H]1[C@@H](n2cc(-c3cc(F)cc(Br)c3)nn2)[C@@H](O)[C@@H](CO)O[C@H]1C(=O)N(c1cc(Br)cc(C#N)c1)[C@@H]1CCC[C@H]1O [Example 1.10.5R, (2R,3R,4S,5R,6R)-N-(3-bromo-5-cyanophenyl)-4-(4-(3-bromo-5-fluorophenyl)-1H-1,2,3-triazol-1-yl)-5-hydroxy-N-((1R,2R)-2-hydroxycyclopentyl)-6-(hydroxymethyl)-3-methoxytetrahydro-2H-pyran-2-carboxamide]
6 | 71.4 | CO[C@@H]1[C@@H](n2cc(-c3cc(F)c(Cl)c(F)c3)nn2)[C@@H](O)[C@@H](CO)O[C@H]1C(=O)N(c1cc(Cl)cc(C#N)c1)[C@H]1CC[C@@H]1O [Example 2.5.4, (2R,3R,4S,5R,6R)-4-(4-(4-chloro-3,5-difluorophenyl)-1H-1,2,3-triazol-1-yl)-N-(3-chloro-5-cyanophenyl)-5-hydroxy-N-((1S,2S)-2-hydroxycyclobutyl)-6-(hydroxymethyl)-3-methoxytetrahydro-2H-pyran-2-carboxamide]
7 | 107 | CO[C@@H]1[C@@H](n2cc(-c3ccc(Br)c(F)c3F)nn2)[C@@H](O)[C@@H](CO)O[C@H]1C(=O)N(c1cc(F)cc(C#N)c1)[C@@H]1CC[C@H]1O [Example 2.12.7R, (2R,3R,4S,5R,6R)-4-(4-(4-bromo-2,3-difluorophenyl)-1H-1,2,3-triazol-1-yl)-N-(3-cyano-5-fluorophenyl)-5-hydroxy-N-((1R,2R)-2-hydroxycyclobutyl)-6-(hydroxymethyl)-3-methoxytetrahydro-2H-pyran-2-carboxamide]
8 | 163 | CO[C@@H]1[C@@H](n2cc(-c3ccc(C#N)c(F)c3)nn2)[C@@H](O)[C@@H](CO)O[C@H]1C(=O)N(c1cc(C)cc(C#N)c1)[C@H]1CCC[C@@H]1O [Example 1.16.8, (2R,3R,4S,5R,6R)-4-(4-(4-cyano-3-fluorophenyl)-1H-1,2,3-triazol-1-yl)-N-(3-cyano-5-methylphenyl)-5-hydroxy-N-((1S,2S)-2-hydroxycyclopentyl)-6-(hydroxymethyl)-3-methoxytetrahydro-2H-pyran-2-carboxamide]
9 | 28.8 | COc1cc(-c2cn([C@H]3[C@@H](O)[C@@H](CO)O[C@@H](C(=O)N(c4cc(Br)cc(Br)c4)[C@H]4CCC[C@@H]4O)[C@@H]3OC)nn2)cc(F)c1F [Example 1.3.11, (2R,3R,4S,5R,6R)-N-(3,5-dibromophenyl)-4-(4-(3,4-difluoro-5-methoxyphenyl)-1H-1,2,3-triazol-1-yl)-5-hydroxy-N-((1S,2S)-2-hydroxycyclopentyl)-6-(hydroxymethyl)-3-methoxytetrahydro-2H-pyran-2-carboxamide]
10 | 450 | CO[C@@H]1[C@@H](n2cc(-c3cc(F)cc(F)c3)nn2)[C@@H](O)[C@@H](CO)O[C@H]1C(=O)N(c1cc(Br)cc(C#N)c1)[C@@H]1CCC[C@H]1O [Example 1.2.5R, (2R,3R,4S,5R,6R)-N-(3-bromo-5-cyanophenyl)-4-(4-(3,5-difluorophenyl)-1H-1,2,3-triazol-1-yl)-5-hydroxy-N-((1R,2R)-2-hydroxycyclopentyl)-6-(hydroxymethyl)-3-methoxytetrahydro-2H-pyran-2-carboxamide]
11 | 146 | CO[C@@H]1[C@@H](n2cc(-c3cc(F)cc(Br)c3)nn2)[C@@H](O)[C@@H](CO)O[C@H]1C(=O)N(c1cc(F)cc(C#N)c1)[C@H]1CCC[C@@H]1O [Example 1.10.7, (2R,3R,4S,5R,6R)-4-(4-(3-bromo-5-fluorophenyl)-1H-1,2,3-triazol-1-yl)-N-(3-cyano-5-fluorophenyl)-5-hydroxy-N-((1S,2S)-2-hydroxycyclopentyl)-6-(hydroxymethyl)-3-methoxytetrahydro-2H-pyran-2-carboxamide]
12 | 232 | CO[C@@H]1[C@@H](n2cc(-c3cc(F)cc(Br)c3)nn2)[C@@H](O)[C@@H](CO)O[C@H]1C(=O)N(c1cc(C)cc(C#N)c1)[C@H]1CC[C@@H]1O [Example 2.10.8, (2R,3R,4S,5R,6R)-4-(4-(3-bromo-5-fluorophenyl)-1H-1,2,3-triazol-1-yl)-N-(3-cyano-5-methylphenyl)-5-hydroxy-N-((1S,2S)-2-hydroxycyclobutyl)-6-(hydroxymethyl)-3-methoxytetrahydro-2H-pyran-2-carboxamide]
13 | 67.5 | O=C([C@@H]1O[C@H](CO)[C@H](O)[C@H](n2cc(-c3cc(F)c(F)c(F)c3)nn2)[C@H]1O)N(c1cc(Cl)cc(Cl)c1)[C@H]1CC[C@@H]1O [Example 2H.1.2, (2R,3R,4S,5R,6R)-N-(3,5-dichlorophenyl)-3,5-dihydroxy-N-((1S,2S)-2-hydroxycyclobutyl)-6-(hydroxymethyl)-4-(4-(3,4,5-trifluorophenyl)-1H-1,2,3-triazol-1-yl)tetrahydro-2H-pyran-2-carboxamide]
14 | 62 | CO[C@@H]1[C@@H](n2cc(-c3ccc(C#N)c(F)c3)nn2)[C@@H](O)[C@@H](CO)O[C@H]1C(=O)N(c1cc(Br)cc(C#N)c1)[C@H]1CCC[C@@H]1O [Example 1.16.5, (2R,3R,4S,5R,6R)-N-(3-bromo-5-cyanophenyl)-4-(4-(4-cyano-3-fluorophenyl)-1H-1,2,3-triazol-1-yl)-5-hydroxy-N-((1S,2S)-2-hydroxycyclopentyl)-6-(hydroxymethyl)-3-methoxytetrahydro-2H-pyran-2-carboxamide]
15 | 1120 | CO[C@@H]1[C@@H](n2cc(-c3cc(F)cc(Br)c3)nn2)[C@@H](O)[C@@H](CO)O[C@H]1C(=O)N(c1cc(C)cc(C#N)c1)[C@@H]1CCC[C@H]1O [Example 1.10.8R, (2R,3R,4S,5R,6R)-4-(4-(3-bromo-5-fluorophenyl)-1H-1,2,3-triazol-1-yl)-N-(3-cyano-5-methylphenyl)-5-hydroxy-N-((1R,2R)-2-hydroxycyclopentyl)-6-(hydroxymethyl)-3-methoxytetrahydro-2H-pyran-2-carboxamide]
16 | 1190 | CO[C@@H]1[C@@H](n2cc(-c3cc(F)cc(Br)c3)nn2)[C@@H](O)[C@@H](CO)O[C@H]1C(=O)N(c1cc(C)cc(C#N)c1)[C@@H]1CC[C@H]1O [Example 2.10.8R, (2R,3R,4S,5R,6R)-4-(4-(3-bromo-5-fluorophenyl)-1H-1,2,3-triazol-1-yl)-N-(3-cyano-5-methylphenyl)-5-hydroxy-N-((1R,2R)-2-hydroxycyclobutyl)-6-(hydroxymethyl)-3-methoxytetrahydro-2H-pyran-2-carboxamide]
17 | 36.7 | CO[C@@H]1[C@@H](n2cc(-c3cc(F)c(Cl)c(F)c3)nn2)[C@@H](O)[C@@H](CO)O[C@H]1C(=O)N(c1cc(Cl)cc(C#N)c1)[C@H]1CCC[C@@H]1O [Example 1.5.4, (2R,3R,4S,5R,6R)-4-(4-(4-chloro-3,5-difluorophenyl)-1H-1,2,3-triazol-1-yl)-N-(3-chloro-5-cyanophenyl)-5-hydroxy-N-((1S,2S)-2-hydroxycyclopentyl)-6-(hydroxymethyl)-3-methoxytetrahydro-2H-pyran-2-carboxamide]

Row | Compound | IC50 [nM]
18 | CO[C@@H]1[C@@H](n2cc(-c3cc(F)c(F)c(F)c3)nn2)[C@@H](O)[C@@H](CO)O[C@H]1C(=O)N(c1cc(Cl)cc(Cl)c1)[C@H]1CC[C@@H]1O [Example 2.1.2, (2R,3R,4S,5R,6R)-N-(3,5-dichlorophenyl)-5-hydroxy-N-((1S,2S)-2-hydroxycyclobutyl)-6-(hydroxymethyl)-3-methoxy-4-(4-(3,4,5-trifluorophenyl)-1H-1,2,3-triazol-1-yl)tetrahydro-2H-pyran-2-carboxamide] | 51.8
